Reference: patent US20070167631A1, “Novel herbicides” (priority 2003, published 2007)

test system: Sinapis; assay: Comparison test with prior art compound A, post-emergence herbicidal action (Example B4); format: in vivo; settings: 125 g/ha, rating scale 10=total damage, 0=no action
Excerpt: (§1) The post-emergence herbicidal action of compound no. 1.095 according to the invention was compared with compound A, which is described as compound no.

Question: For `O=C1CCCC(O)=C1C(=O)c1ncc(C(F)(F)F)cc1Cl` [A, reference compound], which “Post-emergence herbicidal action: Sinapis” value is on record?
Answer: 6

test system: Sida; assay: as above; format: in vivo; settings: 125 g/ha, rating scale 10=total damage, 0=no action
Excerpt: as §1

Question: For `O=C1CCCC(O)=C1C(=O)c1ncc(C(F)(F)F)cc1Cl` [A, reference compound], which “Post-emergence herbicidal action: Sida” value is on record?
Answer: 2

test system: Maize; assay: as above; format: in vivo; settings: 125 g/ha, crop plant, rating scale 10=total damage, 0=no action
Excerpt: as §1

Question: How did the “Post-emergence herbicidal action: Maize” value turn out when `O=C1CCCC(O)=C1C(=O)c1ncc(C(F)(F)F)cc1Cl` [A, reference compound] was run?
Answer: 0

test system: Wheat; assay: as above; format: in vivo; settings: 125 g/ha, crop plant, rating scale 10=total damage, 0=no action
Excerpt: as §1

Question: `O=C1CCCC(O)=C1C(=O)c1ncc(C(F)(F)F)cc1Cl` [A, reference compound] was tested. Which “Post-emergence herbicidal action: Wheat” value did it give?
Answer: 0

test system: Stellaria; assay: as above; format: in vivo; settings: 125 g/ha, rating scale 10=total damage, 0=no action
Excerpt: as §1

Question: How did the “Post-emergence herbicidal action: Stellaria” value turn out when `O=C1CCCC(O)=C1C(=O)c1ncc(C(F)(F)F)cc1Cl` [A, reference compound] was run?
Answer: 9

test system: Panicum; assay: Pre-emergence herbicidal action (Example B1); format: in vivo; settings: 250 g/ha, after 4 weeks, rating scale 10=total damage, 0=no action
Procedure: (§2) Monocotyledonous and dicotyledonous test plants are sown in standard soil in pots or seed trays. Immediately after sowing, the test compounds, in the form of an aqueous suspension (prepared from a wettable powder (Example F3, b) according to WO 97/34485) or in the form of an emulsion (prepared from an emulsifiable concentrate (Example F1, c) according to WO 97/34485), are applied by spraying in a concentration of 250 g/ha. The test plants are then grown in a greenhouse under optimum conditions. After a test duration of 4 weeks, the test is evaluated in accordance with a scale of eleven ratings (10=total damage, 0=no action). Ratings of from 10 to 7 (especially from 10 to 8) indicate very good to good herbicidal action.

Question: With `CC1CN(c2nc(C(=O)C3=C(O)CCCC3=O)ccc2C(F)(F)F)CC(C)O1` (stereo not drawn) [Compound 1.075] as the compound, how does the “Pre-emergence action: Panicum” value read?
Answer: 10

Question: Which “Pre-emergence action: Panicum” value does the source give for `O=C1CCCC(O)=C1C(=O)c1ccc(C(F)(F)F)c(N2CCSCC2)n1` [Compound 1.079] here?
Answer: 10

test system: Scirpus; assay: Pre-emergence herbicidal action (Example B1); format: in vivo; settings: 250 g/ha, after 4 weeks, rating scale 10=total damage, 0=no action
Procedure: as §2

Question: Which “Pre-emergence action: Scirpus” value does the source give for `CC1CN(c2nc(C(=O)C3=C(O)CCCC3=O)ccc2C(F)(F)F)CC(C)O1` (stereo not drawn) [Compound 1.075] here?
Answer: 7

Question: How did the “Pre-emergence action: Scirpus” value turn out when `O=C1CCCC(O)=C1C(=O)c1ccc(C(F)(F)F)c(N2CCSCC2)n1` [Compound 1.079] was run?
Answer: 4

test system: Echinochloa; assay: Pre-emergence herbicidal action (Example B1); format: in vivo; settings: 250 g/ha, after 4 weeks, rating scale 10=total damage, 0=no action
Procedure: as §2

Question: For `CC1CN(c2nc(C(=O)C3=C(O)CCCC3=O)ccc2C(F)(F)F)CC(C)O1` (stereo not drawn) [Compound 1.075], which “Pre-emergence action: Echinochloa” value is on record?
Answer: 10

Question: `O=C1CCCC(O)=C1C(=O)c1ccc(C(F)(F)F)c(N2CCSCC2)n1` [Compound 1.079] was tested. Which “Pre-emergence action: Echinochloa” value did it give?
Answer: 10

test system: Chenopodium; assay: Pre-emergence herbicidal action (Example B1); format: in vivo; settings: 250 g/ha, after 4 weeks, rating scale 10=total damage, 0=no action
Procedure: as §2

Question: How did the “Pre-emergence action: Chenopodium” value turn out when `CC1CN(c2nc(C(=O)C3=C(O)CCCC3=O)ccc2C(F)(F)F)CC(C)O1` (stereo not drawn) [Compound 1.075] was run?
Answer: 9

Question: With `O=C1CCCC(O)=C1C(=O)c1ccc(C(F)(F)F)c(N2CCSCC2)n1` [Compound 1.079] as the compound, how does the “Pre-emergence action: Chenopodium” value read?
Answer: 9

test system: Digitaria; assay: Pre-emergence herbicidal action (Example B1); format: in vivo; settings: 250 g/ha, after 4 weeks, rating scale 10=total damage, 0=no action
Procedure: as §2

Question: `CC1CN(c2nc(C(=O)C3=C(O)CCCC3=O)ccc2C(F)(F)F)CC(C)O1` (stereo not drawn) [Compound 1.075] was tested. Which “Pre-emergence action: Digitaria” value did it give?
Answer: 10

Question: For `O=C1CCCC(O)=C1C(=O)c1ccc(C(F)(F)F)c(N2CCSCC2)n1` [Compound 1.079], which “Pre-emergence action: Digitaria” value is on record?
Answer: 10

test system: Abutilon; assay: Pre-emergence herbicidal action (Example B1); format: in vivo; settings: 250 g/ha, after 4 weeks, rating scale 10=total damage, 0=no action
Procedure: as §2

Question: How did the “Pre-emergence action: Abutilon” value turn out when `CC1CN(c2nc(C(=O)C3=C(O)CCCC3=O)ccc2C(F)(F)F)CC(C)O1` (stereo not drawn) [Compound 1.075] was run?
Answer: 9

Question: `O=C1CCCC(O)=C1C(=O)c1ccc(C(F)(F)F)c(N2CCSCC2)n1` [Compound 1.079] was tested. Which “Pre-emergence action: Abutilon” value did it give?
Answer: 10

test system: Amaranthus; assay: Pre-emergence herbicidal action (Example B1); format: in vivo; settings: 250 g/ha, after 4 weeks, rating scale 10=total damage, 0=no action
Procedure: as §2

Question: For `CC1CN(c2nc(C(=O)C3=C(O)CCCC3=O)ccc2C(F)(F)F)CC(C)O1` (stereo not drawn) [Compound 1.075], which “Pre-emergence action: Amaranthus” value is on record?
Answer: 10

Question: For `O=C1CCCC(O)=C1C(=O)c1ccc(C(F)(F)F)c(N2CCSCC2)n1` [Compound 1.079], which “Pre-emergence action: Amaranthus” value is on record?
Answer: 10

test system: Xanthium; assay: Post-emergence herbicidal action (Example B2); format: in vivo; settings: 250 g/ha, after about 18 days, rating scale 10=total damage, 0=no action
Excerpt: (§3) Monocotyledonous and dicotyledonous test plants are cultivated in a greenhouse in standard soil in plastic pots and, at the 4- to 6-leaf stage, are sprayed with an aqueous suspension of the test compounds of formula I prepared from a 25% wettable powder (Example F3, b) according to WO 97/34485) or with an emulsion of the test compounds of formula I prepared from a 25% emulsifiable concentrate (Example F1, c) according to WO 97/34485), corresponding to concentrations of 125 and 250 g of active ingredient per hectare (500 litres of water per ha). The test plants are then grown on in the greenhouse under optimum conditions. After a test duration of about 18 days, the test is evaluated in accordance with a scale of eleven ratings (10=total damage, 0=no action). Ratings of from 10 to 7 (especially from 10 to 8) indicate very good to good herbicidal action.

Question: Which “Post-emergence action: Xanthium” value does the source give for `CC1CN(c2nc(C(=O)C3=C(O)CCCC3=O)ccc2C(F)(F)F)CC(C)O1` (stereo not drawn) [Compound 1.075] here?
Answer: 7

Question: Which “Post-emergence action: Xanthium” value does the source give for `O=C1CCCC(O)=C1C(=O)c1ccc(C(F)(F)F)c(N2CCSCC2)n1` [Compound 1.079] here?
Answer: 7

test system: Panicum; assay: Post-emergence herbicidal action (Example B2); format: in vivo; settings: 250 g/ha, after about 18 days, rating scale 10=total damage, 0=no action
Excerpt: as §3

Question: `CC1CN(c2nc(C(=O)C3=C(O)CCCC3=O)ccc2C(F)(F)F)CC(C)O1` (stereo not drawn) [Compound 1.075] was tested. Which “Post-emergence action: Panicum” value did it give?
Answer: 10

Question: Which “Post-emergence action: Panicum” value does the source give for `O=C1CCCC(O)=C1C(=O)c1ccc(C(F)(F)F)c(N2CCSCC2)n1` [Compound 1.079] here?
Answer: 3

test system: Echinochloa; assay: Post-emergence herbicidal action (Example B2); format: in vivo; settings: 250 g/ha, after about 18 days, rating scale 10=total damage, 0=no action
Excerpt: as §3

Question: Which “Post-emergence action: Echinochloa” value does the source give for `CC1CN(c2nc(C(=O)C3=C(O)CCCC3=O)ccc2C(F)(F)F)CC(C)O1` (stereo not drawn) [Compound 1.075] here?
Answer: 8

Question: Which “Post-emergence action: Echinochloa” value does the source give for `O=C1CCCC(O)=C1C(=O)c1ccc(C(F)(F)F)c(N2CCSCC2)n1` [Compound 1.079] here?
Answer: 7

test system: Euphorbia; assay: Post-emergence herbicidal action (Example B2); format: in vivo; settings: 250 g/ha, after about 18 days, rating scale 10=total damage, 0=no action
Excerpt: as §3

Question: For `CC1CN(c2nc(C(=O)C3=C(O)CCCC3=O)ccc2C(F)(F)F)CC(C)O1` (stereo not drawn) [Compound 1.075], which “Post-emergence action: Euphorbia” value is on record?
Answer: 8

Question: With `O=C1CCCC(O)=C1C(=O)c1ccc(C(F)(F)F)c(N2CCSCC2)n1` [Compound 1.079] as the compound, how does the “Post-emergence action: Euphorbia” value read?
Answer: 8

test system: Chenopodium; assay: Post-emergence herbicidal action (Example B2); format: in vivo; settings: 250 g/ha, after about 18 days, rating scale 10=total damage, 0=no action
Excerpt: as §3

Question: Which “Post-emergence action: Chenopodium” value does the source give for `CC1CN(c2nc(C(=O)C3=C(O)CCCC3=O)ccc2C(F)(F)F)CC(C)O1` (stereo not drawn) [Compound 1.075] here?
Answer: 10

Question: `O=C1CCCC(O)=C1C(=O)c1ccc(C(F)(F)F)c(N2CCSCC2)n1` [Compound 1.079] was tested. Which “Post-emergence action: Chenopodium” value did it give?
Answer: 10

test system: Stellaria; assay: Post-emergence herbicidal action (Example B2); format: in vivo; settings: 250 g/ha, after about 18 days, rating scale 10=total damage, 0=no action
Excerpt: as §3

Question: For `CC1CN(c2nc(C(=O)C3=C(O)CCCC3=O)ccc2C(F)(F)F)CC(C)O1` (stereo not drawn) [Compound 1.075], which “Post-emergence action: Stellaria” value is on record?
Answer: 8

Question: With `O=C1CCCC(O)=C1C(=O)c1ccc(C(F)(F)F)c(N2CCSCC2)n1` [Compound 1.079] as the compound, how does the “Post-emergence action: Stellaria” value read?
Answer: 10

test system: Amaranthus; assay: Post-emergence herbicidal action (Example B2); format: in vivo; settings: 250 g/ha, after about 18 days, rating scale 10=total damage, 0=no action
Excerpt: as §3

Question: How did the “Post-emergence action: Amaranthus” value turn out when `CC1CN(c2nc(C(=O)C3=C(O)CCCC3=O)ccc2C(F)(F)F)CC(C)O1` (stereo not drawn) [Compound 1.075] was run?
Answer: 10

Question: `O=C1CCCC(O)=C1C(=O)c1ccc(C(F)(F)F)c(N2CCSCC2)n1` [Compound 1.079] was tested. Which “Post-emergence action: Amaranthus” value did it give?
Answer: 8
